Assays:
[1] = biological target: Norepinephrine transporter (Rattus norvegicus, UniProt Q9WTR4); assay: Inhibition of [ring 2,5,6-3H]dopamine reuptake in rat cerebral cortex NET; format: tissue-based
[2] = biological target: Sodium-dependent serotonin transporter (Rattus norvegicus, UniProt P31652); assay: Inhibition of [1,2-3H]serotonin reuptake in rat cerebral cortex SERT; format: tissue-based
[3] = biological target: Sodium-dependent dopamine transporter (Rattus norvegicus, UniProt P23977); assay: Inhibition of [ring 2,5,6-3H]dopamine reuptake in rat striatum DAT; format: tissue-based
[4] = biological target: Sodium-dependent serotonin transporter (Rattus norvegicus) (UniProt P31652); assay: Ratio of fluoxetine Ki to compound Ki for rat cerebral cortex SERT; format: tissue-based
Rattus norvegicus [5] = species on record: Rattus norvegicus; assay: Selectivity ratio of Ki for rat striatum DAT to Ki for rat cerebral cortex SERT; format: tissue-based
Rattus norvegicus [6] = species on record: Rattus norvegicus; assay: Selectivity ratio of Ki for rat cerebral cortex NET to Ki for rat cerebral cortex SERT

Sequence of Sodium-dependent serotonin transporter (P31652 whole entry): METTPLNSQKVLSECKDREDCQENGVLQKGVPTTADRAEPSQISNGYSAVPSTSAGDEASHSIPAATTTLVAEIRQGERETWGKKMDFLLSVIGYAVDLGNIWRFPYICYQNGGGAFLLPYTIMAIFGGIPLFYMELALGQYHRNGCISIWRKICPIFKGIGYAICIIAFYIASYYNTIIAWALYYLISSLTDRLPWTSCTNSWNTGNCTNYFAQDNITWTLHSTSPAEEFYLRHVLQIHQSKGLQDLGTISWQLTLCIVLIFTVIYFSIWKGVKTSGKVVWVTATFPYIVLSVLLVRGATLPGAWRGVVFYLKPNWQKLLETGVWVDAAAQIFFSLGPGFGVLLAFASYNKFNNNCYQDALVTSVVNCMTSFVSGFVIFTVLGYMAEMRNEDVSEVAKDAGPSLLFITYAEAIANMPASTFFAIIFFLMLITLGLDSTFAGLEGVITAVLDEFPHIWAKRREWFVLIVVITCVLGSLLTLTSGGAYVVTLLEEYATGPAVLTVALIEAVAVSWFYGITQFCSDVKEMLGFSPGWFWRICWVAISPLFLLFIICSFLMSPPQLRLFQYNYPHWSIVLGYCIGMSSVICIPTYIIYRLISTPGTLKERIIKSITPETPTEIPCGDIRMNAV
Sequence of Norepinephrine transporter (Q9WTR4 whole entry): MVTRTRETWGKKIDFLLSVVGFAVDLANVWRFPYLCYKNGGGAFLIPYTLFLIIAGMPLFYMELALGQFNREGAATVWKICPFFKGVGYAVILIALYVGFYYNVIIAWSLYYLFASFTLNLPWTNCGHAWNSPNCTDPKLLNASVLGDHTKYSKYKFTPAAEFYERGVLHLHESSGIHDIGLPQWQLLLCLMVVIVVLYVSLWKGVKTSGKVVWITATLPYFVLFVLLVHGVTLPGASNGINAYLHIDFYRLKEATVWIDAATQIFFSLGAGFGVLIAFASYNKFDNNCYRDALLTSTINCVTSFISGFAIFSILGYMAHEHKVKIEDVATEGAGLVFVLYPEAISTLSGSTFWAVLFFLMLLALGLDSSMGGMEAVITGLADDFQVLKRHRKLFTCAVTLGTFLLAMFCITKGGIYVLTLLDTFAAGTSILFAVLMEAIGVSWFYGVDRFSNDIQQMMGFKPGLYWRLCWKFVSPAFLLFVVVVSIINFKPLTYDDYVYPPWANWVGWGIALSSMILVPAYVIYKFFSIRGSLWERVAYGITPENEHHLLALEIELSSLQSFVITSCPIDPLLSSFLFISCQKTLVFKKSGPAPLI
Sequence of Sodium-dependent dopamine transporter (P23977 whole entry): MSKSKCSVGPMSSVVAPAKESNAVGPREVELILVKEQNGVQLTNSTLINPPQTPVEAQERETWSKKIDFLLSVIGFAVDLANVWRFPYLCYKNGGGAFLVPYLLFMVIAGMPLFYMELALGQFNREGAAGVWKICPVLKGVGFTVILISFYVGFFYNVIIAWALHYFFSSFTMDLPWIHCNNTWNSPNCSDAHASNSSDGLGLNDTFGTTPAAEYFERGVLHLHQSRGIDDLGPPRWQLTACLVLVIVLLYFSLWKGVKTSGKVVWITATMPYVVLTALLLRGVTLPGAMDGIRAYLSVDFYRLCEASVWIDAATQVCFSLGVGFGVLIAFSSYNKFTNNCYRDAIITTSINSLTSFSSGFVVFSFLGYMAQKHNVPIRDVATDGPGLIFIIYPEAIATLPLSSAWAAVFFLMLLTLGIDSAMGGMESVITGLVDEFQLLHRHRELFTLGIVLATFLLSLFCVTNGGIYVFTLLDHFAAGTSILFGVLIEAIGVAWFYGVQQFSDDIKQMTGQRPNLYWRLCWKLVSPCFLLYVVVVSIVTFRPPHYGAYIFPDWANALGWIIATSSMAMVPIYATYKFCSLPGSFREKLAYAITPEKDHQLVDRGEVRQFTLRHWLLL
Sequence of Sodium-dependent serotonin transporter (Rattus norvegicus) (P31652 whole entry): as the sequence (P31652 whole entry) above

Compound	Ki [1] [µM]	Ki [2] [µM]	also measured
COc1cc(CN[C@@H]2CO[C@H](C(c3ccc(F)cc3)c3ccc(F)cc3)C[C@H]2O)ccc1O	0.00476	–	–
COc1cc(CN[C@@H]2CO[C@H](C(c3ccccc3)c3ccccc3)C[C@H]2O)ccc1O	0.0337	0.223	–
Oc1ccc(CN[C@@H]2CO[C@H](C(c3ccc(F)cc3)c3ccc(F)cc3)C[C@H]2O)cc1F	0.00737	–	Ki [3]: 0.0131 µM
c1ccc(C(c2ccccc2)[C@@H]2CC[C@H](NCc3ccc4occc4c3)CO2)cc1	0.0252	–	Ratio Ki [4]: 20; Ratio Ki (Rattus norvegicus [5]): 115; Ratio Ki (Rattus norvegicus [6]): 35
O[C@@H]1C[C@@H](C(c2ccc(F)cc2)c2ccc(F)cc2)OC[C@H]1NCc1ccc2c(c1)OCO2	0.0102	0.4	–
O[C@@H]1C[C@@H](C(c2ccc(F)cc2)c2ccc(F)cc2)OC[C@H]1NCc1ccc2c(c1)CCO2	0.0258	–	–
COc1ccc(CN[C@@H]2CO[C@H](C(c3ccccc3)c3ccccc3)C[C@H]2O)c(F)c1	0.00933	0.064	Ki [3]: 0.0518 µM
COc1ccc(CN[C@@H]2CO[C@H](C(c3ccccc3)c3ccccc3)C[C@H]2O)cc1O	0.0302	–	–
Oc1ccc(CN[C@H]2CC[C@@H](C(c3ccc(F)cc3)c3ccc(F)cc3)OC2)cc1	0.0134	0.334	–
Oc1cc(O)cc(CN[C@@H]2CO[C@H](C(c3ccccc3)c3ccccc3)C[C@H]2O)c1	0.152	–	–
COc1cc(O)cc(CN[C@@H]2CO[C@H](C(c3ccc(F)cc3)c3ccc(F)cc3)C[C@H]2O)c1	0.00491	–	–
COc1cc(O)cc(CN[C@@H]2CO[C@H](C(c3ccccc3)c3ccccc3)C[C@H]2O)c1	0.0442	–	–
COc1cccc(CN[C@@H]2CO[C@H](C(c3ccccc3)c3ccccc3)C[C@H]2O)c1	0.00585	–	–
COc1cccc(CN[C@@H]2CO[C@H](C(c3ccc(F)cc3)c3ccc(F)cc3)C[C@H]2O)c1	0.0288	–	–
COc1ccc(CN[C@@H]2CO[C@H](C(c3ccccc3)c3ccccc3)C[C@H]2O)cc1F	0.0416	0.00902	Ki [3]: 0.0482 µM
COc1ccc(CN[C@@H]2CO[C@H](C(c3ccccc3)c3ccccc3)C[C@H]2O)cn1	0.0381	0.0422	Ki [3]: 0.0441 µM
O[C@@H]1C[C@@H](C(c2ccccc2)c2ccccc2)OC[C@H]1NCc1ccc2occc2c1	0.0336	–	–
O[C@@H]1C[C@@H](C(c2ccc(F)cc2)c2ccc(F)cc2)OC[C@H]1NCc1ccc2occc2c1	0.0265	–	–
COc1ccc(CN[C@@H]2CO[C@H](C(c3ccc(F)cc3)c3ccc(F)cc3)C[C@H]2O)cn1	0.0284	–	–
